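Test compounds were applied to cells in 96-well plates for 48 hours at 5 doses. The concentration for full growth arrest is given as TGI.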
Experiments:
Experiment in all cases: NCI tumour cell line growth inhibition, 48 h
[1] = system: DLD-1 colon
[2] = system: SF-268 CNS
[3] = system: HOP-92 NSCLC
[4] = system: A498 renal
[5] = system: SN12C renal
[6] = system: UACC-62 melanoma
[7] = system: NCI-H522 lung
[8] = system: RPMI-8226 leukemia
[9] = system: UACC-257 melanoma
[10] = system: LOX IMVI melanoma
[11] = system: NCI-H23 lung
[12] = system: SK-MEL-28 melanoma
[13] = system: SK-MEL-2 melanoma
[14] = system: KM12 colon
[15] = system: A549 NSCLC
[16] = system: 786-0 renal
[17] = system: OVCAR-5 ovarian
[18] = system: ACHN renal
[19] = system: DMS 114 small cell lung
[20] = system: OVCAR-8 ovarian
[21] = system: M19-MEL melanoma
[22] = system: SR leukemia
[23] = system: HCT-15 colon
[24] = system: LXFL 529 NSCLC
[25] = system: K-562 leukemia
[26] = system: U251 CNS
[27] = system: EKVX NSCLC
[28] = system: KM20L2 colon
[29] = system: XF 498 CNS
[30] = system: SF-295 CNS
[31] = system: TK-10 renal
[32] = system: RXF-631 renal
[33] = system: SK-OV-3 ovarian
[34] = system: NCI-H226 lung
[35] = system: RXF 393 renal
[36] = system: SNB-78 CNS
[37] = system: UO-31 renal
[38] = system: NCI-H460 lung
[39] = system: CAKI-1 renal
[40] = system: SNB-75 CNS
[41] = system: SNB-19 CNS
[42] = system: SK-MEL-5 melanoma
[43] = system: CCRF-CEM leukemia
[44] = system: HT29 colon
[45] = system: IGROV1 ovarian
[46] = system: HCC-2998 colon
[47] = system: COLO 205 colon
[48] = system: HOP-18 NSCLC
[49] = system: MOLT-4 leukemia
[50] = system: HCT-116 colon
[51] = system: MALME-3M melanoma
[52] = system: OVCAR-3 ovarian
[53] = system: HOP-62 NSCLC
[54] = system: M14 melanoma
[55] = system: SF-539 CNS
[56] = system: HL-60(TB) leukemia
[57] = system: SW-620 colon
[58] = system: OVCAR-4 ovarian

Measured: TGI

CN1CC[C@]2(C)c3c(O)cccc3CC3CCCC1C32C (stereo not given in full)
72.7 µM: [46]
not listed: [57] | [58]
> 100 µM: all other assays above

CC1=NC(C(=O)O)Cc2c1[nH]c1ccccc21 (stereo not given)
not listed: [9] | [14] | [15] | [16] | [17] | [22] | [35] | [46] | [50] | [53] | [58]
> 100 µM: all other assays above

CON(C)C(=O)CCCO
not listed: [4] | [10] | [17] | [33] | [36] | [46]
> 100 µM: all other assays above
